From patent publication US20180117249A1, “Warburg Effect Targeted Chemotherapy Apparatus” (Cure Cancer Worldwide LLC, priority 2010, published 2018)

Assays:
[1] = cited from earlier work
[2] = test system: breast cancer cells in culture; conditions: methotrexate with insulin vs methotrexate alone; cited from earlier work
breast cancer = conditions: diabetic women taking metformin; diabetic control 8%, non-diabetic control 16%; cited from earlier work
[3] = test system: MDA-MB-231 breast cancer cells; conditions: cells incubated with insulin; cited from earlier work
breast cancer cells [4] = conditions: cells incubated with insulin; cited from earlier work
breast cancer cells [5] = conditions: asynchronous population; 37% in controls; cited from earlier work
[6] = Hypoglycemic glucose clamp in SCID mouse xenograft model; format: in vivo
Protocol: The glucose clamp technique has been well developed in animals models for the purpose diabetes research. (Ayala, et al., 2011) We have adapted this technique for use in a SCID mouse xenograft model. FIG. 3 gives a schematic of this procedure. Briefly, mice are injected subcutaneously in the hind flank with a standard amount of cancer cells sufficient to cause a tumor to grow. After a few weeks when tumor volume measures around 300-500 mm3, mice undergo jugular vein cannulation. Mice are fasted for 5 hours prior to treatment with chemotherapy drugs. Depending on the pharmacokinetics of the drug, drugs are either given before the start of the glucose clamp or during the clamp procedure to correspond to the maximum effectiveness of the drug during the “hypoglycemia therapeutic window”. Injection pumps containing insulin, glucose and washed erythrocytes from donor mouse blood are connected to a swivel mixer which is in turn connected to the jugular catheters. For the initiation of the hypoglycemic clump, a bolus injection of insulin is given to reduce initial blood glucose levels which typically take around 30 minutes to lower blood glucose. Then a steady state of insulin and glucose is given to maintain blood glucose levels between 30-50 mg/dL for two hours. In practice, blood glucose levels range from 22-51 mg/dl with an average around 34 mg/dL (1.9 mmol/L). […]

[7] = test system: human esophageal and colonic cancer cells; conditions: cited from earlier work
[8] = Insulin-induced hypoglycemia safety profile (Xi'an, China); format: in vivo, patients
Excerpt: Cure Cancer Worldwide in conjunction with several hospitals in China have been treating patients using a combination of insulin induced hypoglycemia in combination with standard chemotherapy treatments, generally given multiple times in a 3 week window but at 10% the standard dose. The safety of these treatments has been evaluated as well as the side effects.

[9] = insulin several hours before 5-FU vs 5-FU without insulin

Compound: O=CC[C@@H](O)[C@H](O)[C@H](O)CO [2DG, 2-deoxyglucose]
- ECG effect ([1]; Raez, et al., 2013): irregular Electrocardiograph (ECG) heart rhythms
- main failure point in the clinic ([1]; clinical trials): induced hyperglycemia

Compound: CN(Cc1cnc2nc(N)nc(N)c2n1)c1ccc(C(=O)N[C@@H](CCC(=O)O)C(=O)O)cc1 [methotrexate]
- lowering of methotrexate concentration for same percent cell killing [2]: 10000 fold

Compound: CN(C)C(=N)N=C(N)N [metformin]
- pathological complete response (pCR) rate (breast cancer): 24%

Compound: insulin
- increase in the uptake of elipticine [3]: 2 fold
- stimulation of uptake of methotrexate (breast cancer cells [4]): 50%
- S-phase fraction (breast cancer cells [5]): 66%
- time to lower blood glucose ([6]; bolus injection of insulin at initiation of clamp): around 30 minutes
- blood glucose levels, range in practice ([6]; steady state of insulin and glucose for two hours, target 30-50 mg/dL): 22 to 51 mg/dL
- apoptotic cell populations [7, 9]: higher percentage of apoptotic cell populations
- inhibition of cell growth [7, 9]: greater inhibition of cell growth
- percent of S-phase cells ([7]; treatment of insulin): increase in the percent of S-phase cells
- Comas ([8]; 950 insulin injections): 0 n
- Deaths ([8]; 950 insulin injections): 0 n
- Time Interval of Hypoglycemia ([8]; 950 insulin injections): 5-25 m
- Hypoglycemia range ([8]; insulin induced hypoglycemia with chemotherapy at 10% standard dose, initial blood glucose 3.86-7.95 mmol/l, 950 insulin injections): 1.0 to 3.4 mmol/L
- Conclusion ([8]; insulin-induced hypoglycemia safety profile): safe
